Laboratory results as given in US10344053B2, “Inhibitors for inhibiting tumor metastasis” (Forschungsverbund Berlin e.V., priority 2014, dated 2019).

How the values were obtained:
[1] = biological target: EVH-1 domain; assay: Binding affinity to EVH-1 domain by fluorescence titration (FT), Table 1; conditions: for Kd: EVH-1 domain; for FT ΔG: free enthalpy of protein-ligand complex
Description: (§1) The substitution of the diproline units of the FPPPP motif with the Fmoc-ProMs was carried out. The binding affinities of the ligands to the domain were subsequently determined by means of isothermal titration calorimetry (ITC) on the basis of the dissociation constant (Kd) or the free enthalpy (ΔG) of the protein-ligand complexes. The results of the measurements were additionally checked by means of fluorescence titration (FT). A stronger binding of the respective ligand is expressed by a smaller value for Kd or a more negative value for ΔG. The correlation between the dissociation constant (Kd) and the free enthalpy (ΔG) is illustrated with the following equations: […]

[2] = biological target: EVH-1 domain; assay: Binding affinity to EVH-1 domain by isothermal titration calorimetry (ITC), Table 1; conditions: for Kd / ITC ΔG: ITC; for Kd: EVH-1 domain; for ITC ΔG: free enthalpy of protein-ligand complex
Description: as §1

[3] = biological target: T1, EnaH-EVH1 (Homo sapiens, UniProt Q8N8S7); assay: Binding affinity by FT, EnaH-EVH1
T1 construct: VASP-EVH-1, EnaH-EVH-1 and EVL-EVH-1 domain
Description: as §1
(§2) A further analysis to test the dissociation constant (Kd) of a variety of other compounds was carried out by means of FT and ITC.

[4] = in vitro; format: in vitro ADME; conditions: human, microsomes
[5] = in vitro; conditions: mouse, mouse plasma
[6] = biological target: T2, VASP-EVH1 (Homo sapiens, UniProt P50552); assay: Binding affinity by ITC, VASP-EVH1
T2 construct: VASP-EVH-1, EnaH-EVH-1 and EVL-EVH-1 domain
Description: as §1, §2

[7] = biological target: T3, EVL-EVH1 (Homo sapiens, UniProt Q9UI08); assay: Binding affinity by ITC, EVL-EVH1
T3 construct: VASP-EVH-1, EnaH-EVH-1 and EVL-EVH-1 domain
Description: as §1, §2

[8] = in vitro; format: in vitro ADME; conditions: for Plasma stability, % remaining (Tlast 240 min): 4 h; for half-life: plasma
Description: An in vitro assay was performed in the plasma of mice and humans.

[9] = biological target: T1, EnaH-EVH1; assay: Binding affinity by ITC, EnaH-EVH1
Description: as §1, §2

[10] = in vitro; format: in vitro ADME; conditions: mouse, microsomes
[11] = in vitro; conditions: human, human plasma
[12] = biological target: T3, EVL-EVH1; assay: Binding affinity by FT, EVL-EVH1
Description: as §1, §2

[13] = biological target: T2, VASP-EVH1; assay: Binding affinity by FT, VASP-EVH1
Description: as §1, §2

[14] = system: ena/VASP-EVH1; assay: Inhibition of ena/VASP-EVH1-mediated protein-protein interactions, affinity for the target (statements in words); format: binding; conditions: result in words
[15] = system: MDA MB 231 breast cancer cells; assay: Matrigel migration assay (chemotaxis and motility); format: cell-based; conditions: relative to the baseline value (DMSO/no FBS gradient)
Description: FIG. 1: Inhibition of the chemotaxis and motility of highly invasive tumor cells in a matrigel migration assay.
Cell culture experiments were performed with MDA MB 231 breast cancer cells.
Example Compound III inhibits the migration of MDA MB 231 breast cancer cells by more than 90% relative to the baseline value (DMSO/no FBS gradient) (FIGS. 1 A and B).

[16] = biological target: T2, VASP-EVH1; assay: Binding data to VASP-EVH1 (text, method not stated); conditions: text b160
[17] = system: cells; assay: Cellular toxicity; format: cell-based; conditions: result in words
Text: FIG. 2: Cellular toxicity of the compound in accordance with Formula III.
The low or absent cellular toxicity likewise constitutes a surprising and advantageous property of the compounds. The inventive compounds bind to the target receptor not only with very low dissociation constants, but also with high specificity. For medical use of the compounds this is to be considered as an advantage.

[18] = system: target cells; assay: Cell experiments: absorption of the compound by target cells; format: cell-based; conditions: ester derivative versus carboxylic acid ligand; result in words
Text: Within the framework of cell experiments it could further be shown that, by replacing the carboxylic acid ligand with the ester derivative (NBD-Phe(2-CI)-[ProM-2][ProM-1]-OEt), the ability of the compound to be absorbed by the target cells could be improved. The absorption of the substance in the cell could thus be increased, without loss of the advantageous binding properties.

T3 sequence (Q9UI08 1-112 limits assumed): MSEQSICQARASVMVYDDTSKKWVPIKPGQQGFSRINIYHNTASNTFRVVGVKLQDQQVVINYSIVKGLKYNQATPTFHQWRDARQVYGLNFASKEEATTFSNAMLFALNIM
T1 sequence (Q8N8S7 1-111 limits assumed): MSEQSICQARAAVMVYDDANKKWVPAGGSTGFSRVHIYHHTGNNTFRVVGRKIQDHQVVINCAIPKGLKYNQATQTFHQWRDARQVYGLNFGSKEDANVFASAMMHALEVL
T2 sequence (P50552 2-113 limits assumed): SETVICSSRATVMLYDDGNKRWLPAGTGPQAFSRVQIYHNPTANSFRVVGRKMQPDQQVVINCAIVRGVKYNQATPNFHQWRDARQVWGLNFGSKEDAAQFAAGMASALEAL

CC(=O)NC(Cc1ccccc1Cl)C(=O)N1CCCC12C=CC1CCC(C(=O)N3CCC4C=CC5CCC(C(=O)O)N5C(=O)C43)N1C2=O (stereo not shown) [Ac-Phe(2-Cl)-[ProM-2][ProM-1]-OH, Ac-Phe(2-CI)-[ProM-2]-[ProM-1]-OH]
Kd [1]: 2.7 µM
FT ΔG [1]: -7.6 kcal/mol
improvement of the binding affinity by a factor (FT) ([1]; in comparison to Ac-Phe(2-CI)-PP[ProM-1]-OH): 1.2
Kd [2]: 3.8 µM
ITC ΔG [2]: -7.41 kcal/mol

CC(=O)NC(Cc1ccccc1Cl)C(=O)N1CCCC12C=CC1CCC(C(=O)N3CCC4C=CC5C(C)CC(C(=O)O)N5C(=O)C43)N1C2=O (stereo not shown) [Ac-Phe(2-Cl)-[ProM-2][ProM-9]-OH]
Kd [1]: 0.28 µM
FT ΔG [1]: -8.94 kcal/mol
Kd [2]: 0.69 µM
ITC ΔG [2]: -8.41 kcal/mol
free enthalpy (Gibbs free energy) gain ΔΔG over the ligand optimization ([2]; determined by means of ITC, overall progression from the wild-type ligand): -3.8 kcal/mol

CCOC(=O)C1CCC2C=CC3CCN(C(=O)C4CCC5C=CC6(CCCN6C(=O)C(Cc6ccccc6Cl)NC(C)=O)C(=O)N54)C3C(=O)N21 (stereo not shown) [Compound 4D, Ac-Phe(2-CI)-[ProM-2][ProM-1]-OEt]
Kd [3]: 4.1 µM
half-life [4]: > 1 h
microsomal CLint [4]: 26.4 µL/min/mg
fraction unbound [5]: 0.981
Kd [6]: 9.4 µM
Kd [7]: 5.8 µM
Plasma stability, % remaining (Tlast 240 min) ([8]; human): 95.5%
half-life ([8]; human): > 4 h
Plasma stability, % remaining (Tlast 240 min) ([8]; mouse): 87.4%
half-life ([8]; mouse): > 4 h
Kd [9]: 7.8 µM
half-life [10]: > 1 h
microsomal CLint [10]: 35.6 µL/min/mg
fraction unbound [11]: 0.924
Kd [12]: 4.1 µM
Kd [13]: 6.2 µM

CCOC(=O)[C@@H]1C[C@@H](CC)[C@@H]2C=C[C@H]3CCN(C(=O)[C@@H]4CC[C@H]5C=C[C@]6(CCCN6C(=O)[C@H](Cc6ccccc6Cl)NC(C)=O)C(=O)N54)[C@@H]3C(=O)N12 [Ac[2-Cl—F][ProM-2][ProM-13]-OEt, Ac-Phe(2-CI)-[ProM-2][ProM-13]-OEt]
affinity for the target [14]: particularly strong affinity
Kd [3]: 0.18 µM
Kd [6]: 0.49 µM
Kd [7]: 0.28 µM
Kd [9]: 0.31 µM
Kd [12]: 0.13 µM
Kd [13]: 0.4 µM

Ac-Phe(2-Cl)-PP[ProM-9]-OH
Kd [1]: 0.4 µM
FT ΔG [1]: -8.77 kcal/mol
Kd [2]: 8 µM
ITC ΔG [2]: -6.96 kcal/mol

Ac-Phe(2-Cl)-PPPP-OH
Kd [1]: 13 µM
FT ΔG [1]: -6.64 kcal/mol
Kd [2]: 18 µM
ITC ΔG [2]: -6.45 kcal/mol

Ac-Phe(2-Cl)-[ProM-2][ProM-4]-OH
Kd [1]: 1.6 µM
FT ΔG [1]: -7.91 kcal/mol
Kd [2]: 9.7 µM
ITC ΔG [2]: -6.84 kcal/mol

CC(=O)N[C@@H](CO)C(=O)N[C@@H](Cc1ccccc1)C(=O)N[C@@H](CCC(=O)O)C(=O)N[C@@H](Cc1ccccc1)C(=O)N1CCC[C@H]1C(=O)N1CCC[C@H]1C(=O)N1CCC[C@H]1C(=O)N1CCC[C@H]1C(=O)N[C@H](C(=O)N[C@@H](CCC(=O)O)C(=O)N[C@@H](CC(=O)O)C(=O)N[C@@H](CCC(=O)O)C(=O)N[C@@H](CC(C)C)C(N)=O)[C@@H](C)O [reference compound]
Kd [2]: 20 µM

CCOC(=O)[C@@H]1C[C@@H](C)[C@@H]2C=C[C@H]3CCN(C(=O)[C@@H]4CC[C@H]5C=C[C@]6(CCCN6C(=O)[C@H](Cc6ccccc6Cl)NC(C)=O)C(=O)N54)[C@@H]3C(=O)N12 [Compound III]
inhibition of ena/VASP-EVH1-mediated protein-protein interactions [14]: selectively inhibit
inhibition of migration of MDA MB 231 breast cancer cells [15]: more than 90%
Kd [16]: 0.28 µM
cellular toxicity [17]: non-toxic to cells

Ac-Phe(2-CI)-[ProM-2][ProM-1]-NH2 [Compound 4C]
Liver microsomal stability Clint [4]: 11.6 μl/min/mg protein
Liver microsomal stability t½ [4]: >1 h
Plasma stability, % remaining (Tlast 240 min) ([8]; human): 80.3%
Plasma stability, % remaining (Tlast 240 min) ([8]; mouse): 94.7%
Liver microsomal stability Clint [10]: 34.0 μl/min/mg protein
Liver microsomal stability t½ [10]: >1 h

NBD-Phe(2-CI)-[ProM-2]-[ProM-1]-OEt [NBD-Phe(2-CI)-[ProM-2][ProM-1]-OEt]
ability to be absorbed by the target cells [18]: improved

Ac-Phe(2-Cl)-PP[ProM-1]-OH
Kd [1]: 3.2 µM
FT ΔG [1]: -7.5 kcal/mol
Kd [2]: 14.1 µM
ITC ΔG [2]: -6.62 kcal/mol
